Results as given in publication PMC12775124, “CUL4A-DDB1-DCAF10 is an N-recognin for N-terminally acetylated Src kinases” (Nature Communications, 2026).

Experiments:
CUL4A-DDB1-DCAF10 = experiment: In vitro ubiquitination of Lyn-GFP variants by CUL4A-DDB1-DCAF10; assay type: biochemical, human; conditions: Lyn-GFP variants, NMT1/2 siRNA
Text: Lyn^WT-GFP was ubiquitinated by the WT E3 complex in both conditions; however, unlike in vitro ubiquitination with endogenous Lyn (Fig. 5c, d), ubiquitination increased ~6-fold under NMT1/2 siRNA conditions. This is consistent with DCAF10 being limiting and overexpressed Lyn-GFP, accumulating an acetylated fraction available for DCAF10 in vitro. Then, we performed IPs for all Nt variants under NMT1/2 siRNA conditions (Fig. 6d, h–i). […] In vitro ubiquitination assays using untreated cell lysates led to similar results (Supplementary Fig. 7h, i).
Reactions contained E1, UBCH5B (E2), ubiquitin, Mg-ATP in ligation buffer and were incubated with bead-bound substrates, followed by washing and immunoblot detection of ubiquitinated species (anti-ubiquitin), with loading controls (anti-Lyn, -Fyn, -Src or -GFP) (n = 3 independent enzymatic assays). Complete reagent lists, complex preparation, substrate IP conditions, wash buffers, and gel/blot parameters are provided in the Supplementary Methods and Tables.
357 (v/v) glycerol, 2 mM TCEP, supplemented with Protease Inhibitor Cocktail), and lysed
358 by sonication. Lysates were cleared by centrifugation at 28,000 rpm for 45 min at 4 °C
359 using a JA-30.50 rotor (Beckman Coulter, Brea, CA, USA). The cleared and filtered (0.8
360 µm) lysate was applied to 1 mL of Strep-Tactin®XT 4Flow® resin (iba), pre-equilibrated
361 once with wash buffer (100 mM Tris-HCl pH 8.0, 150 mM NaCl, 1 mM EDTA) and lysis
362 buffer. The lysate was incubated on a tube roller for 16 h at 4 °C. After incubation, beads
363 were washed with 50 mL of lysis buffer. Bound proteins were eluted with 10 mL of lysis
364 buffer supplemented with 50 mM biotin, after 15 min incubation on a tube roller at 4 °C.
366 Superdex 200 10/300 or 16/60 SEC column (GE Healthcare, Chicago, IL, USA),
367 preequilibrated in SEC buffer (250 mM Tris pH 7.5, 250 mM NaCl, 10% (v/v) glycerol,
370 Purified proteins were visualized during and after the purification by SDS-gels containing
371 TCE (2,2,2-trichloroethanol)62. The identity of proteins was confirmed by WB and MS.
373 In vitro ubiquitination assays
374 The in vitro ubiquitination assays were performed as previously described8. In brief,
375 E1 (50 nM), UBCH5B (250 nM), ubiquitin (1.5 µg), Mg-ATP (3 mM), ligation buffer,
376 and water were pre-mixed. The premix was divided, and either CUL4A-RBX1-
378 RBX1DDB1 (-DCAF10) (250 nM each) was added. 15 μL of each premix were incubated
379 with substrates (endogenous Lyn or Lyn-GFP constructs) bound to beads for 1 h at 30°C
380 with shaking. Samples were then washed four to five times with a buffer containing 50 […]
382 EDTA, and loaded on a gradient gel (4–15%). Ubiquitination of substrates was assessed
383 by WB using an anti-ubiquitin antibody. Equal substrate loading was evaluated by anti- […]

[1] = test system: DLD-1 Flp-In T-REx and Lyn KO cells; experiment: Level of Lyn / Lyn-GFP variants after NMT1/2 and DCAF10 siRNA, Western blot; assay type: cell-based, human; conditions: WB/vinculin, n = 3
Text: To further investigate the role of the Nt-amino acid and its modification in DCAF10 recognition and DCAF10-dependent ubiquitination, we used the CRISPR/Cas9 technique to knock out Lyn in DLD-1 cell lines with T-REx Flp-In background (DLD-1 Lyn KO Flp-In T-REx) (Supplementary Fig. 7a–c). We then integrated Lyn^WT-GFP and two Nt-mutants (Lyn^G2A-GFP and Lyn^G2P-GFP) under a doxycycline-inducible promoter into the Flp-In cassette. Alanine (G2A) is expected to be efficiently acetylated by NatA, generating an Nt-acetylated Lyn mutant. Conversely, the proline (G2P) mutant, is expected not to be acetylated and may retain a free N-terminus[3],[36],[37]. Doxycycline-induced expression of Lyn^WT-GFP, Lyn^G2A-GFP, and Lyn^G2P-GFP was confirmed by Western blot, MS, and fluorescence microscopy (Supplementary Figs. 7d, e; 8a and Supplementary Data 6). While all constructs were ~2–5-fold higher expressed than endogenous Lyn, G2A and G2P were further elevated relative to WT, which may reflect increased stability when Nt-Gly/acetylation is altered (Supplementary Fig. 7e). […] Lyn^WT-GFP mirrored the behavior of endogenous Lyn under NMT1/2 siRNA treatment. Lyn levels decreased with NMT1/2 KD, but were rescued when siRNAs targeting both NMT1/2 and DCAF10 were applied (Fig. 6a, b). […] The weaker reduction of Lyn^WT-GFP may result from Lyn overexpression and the limiting availability of DCAF10.
Fig. 6 N-terminal glycine mutation abolishes DCAF10-dependent stability and ubiquitination. a DLD-1 Flp-In T-REx cells and Lyn KO cells expressing Lyn^WT-GFP, Lyn^G2A-GFP, or Lyn^G2P-GFP were induced for 24 h with 100 ng/mL doxycycline. Cells were treated with NMT1/2 siRNA, DCAF10 siRNA, or both (or left untreated) for 72 h. Representative WBs are shown. Filled circles represent siRNA treatment, empty circles untreated. b WB quantifications of Lyn levels normalized to vinculin. Purple: untreated with NMT1/2 siRNA; blue: treated with NMT1/2 siRNA. Mean ± s.d. with individual data points are shown (n = 3 independent biological replicates). c Schematic of ubiquitination experiments. Created in BioRender. […] Lysates have been treated with NMT1/2 RNAi for 72 h. i Quantification of in vitro ubiquitination assays. Mean ± s.d. with individual data points are shown (n = 3 independent ubiquitination assays). Volcano plots of Lyn-GFP^WT binding partners: j NMT1/2 siRNA ± doxycycline (Dox); k Control ± doxycycline; l NMT1/2 siRNA vs. control both with doxycycline. The −log10 adjusted p-value (two-sided Student’s t test with permutation-based multiple-testing correction; y-axis) is plotted against the log2 fold change (x-axis). Threshold for significance: −log10 p-value ≥ 1.3 (p ≤ 0.05), log2 fold change ≤ −1 or ≥ 1. DCAF10 and Lyn-GFP are marked in green, significant binding partners in purple and in blue, respectively. Source data are provided as a Source data file.
DLD-1 Lyn knockout (KO) Flp-In T-REx cells were generated by CRISPR/Cas9 electroporation using two guide RNAs targeting the LYN locus. Editing and clone validation were confirmed by genomic sequencing, Western blotting, and MS[51]. Stable cell lines expressing doxycycline-inducible Lyn-GFP (WT, G2A, or G2P) were established by FRT/Flp-mediated recombination and validated by antibiotic selection, Western blotting, and fluorescence microscopy. Detailed protocols are provided in the Supplementary Methods and Tables.
461 electroporated using the CM137 program. Following electroporation, the cells were kept […]

DCAF10 = experiment: Peptide pull-down with quantitative MS, HeLa lysate, DCAF10; assay type: binding, human (HeLa); conditions: HeLa lysate, Nt-Ac vs Nt-free peptides
Procedure: Beads presenting 10-residue synthetic Nt-peptides of proteins of interest in their free (Nt-free) or modified (e.g., Nt-acetylated) versions were incubated with lysates from HeLa cells, followed by MS-based quantification of retained binders (Fig. 1a).
Biotinylated 10-mer Nt-peptides (Nt-free, Nt-acetylated, and, where indicated, Nt-myristoylated; sequences in Supplementary Table 1) were synthesized with a C-terminal Lys3 spacer and biotin, immobilized on magnetic streptavidin beads, and incubated with HeLa or mouse liver lysates. After standardized washes, bound proteins were on-bead reduced/alkylated, digested with LysC/trypsin, desalted, and analysed by LC-MS in DIA mode (Orbitrap Exploris 480) as described previously[24]. Variants included endogenous Nt-sequences, swap and mutant (Ala-Ala-Ala or Nt-amino acids) peptides, and pairwise comparisons of conditions of interest.
All MS experiments were performed as independent biological triplicates. Relative protein quantification was carried out using the label-free algorithm integrated in DIA-NN[53], and statistical testing was performed in Perseus using a two-sided Student’s t test with permutation-based multiple-testing-adjusted p-values[53],[54], as specified in the figure legends. […] Volcano blots were visualized with RStudio (version 2023.06.0). […] Cell experiments were performed as biological replicates, and binding assays as independent assays. […] Data are presented as mean ± s.d. Fold changes are reported as the ratio of the normalized value for the condition of interest to the normalized control value, with mean ± s.d. computed across biological replicates.

GST-DCAF10 = experiment: Streptavidin pull-down of GST-DCAF10 with biotinylated Nt-peptides; assay type: binding, human; conditions: 0.5 µM GST-DCAF10, 5 µM peptide, 1 h RT; WB
Procedure: To confirm direct interactions between peptides and DCAF10, we performed pull-down assays using bead-bound Nt-peptide variants incubated with purified full-length GST-DCAF10 or GST as a negative control (Fig. 2m–p and Supplementary Fig. 4a).
230 of 1:100), and desalted/concentrated on C18 reversed phase stage tips as previously
MS measurements settings are stated in MS measurements and raw file
BL21(DE3) cells (Thermo Fisher Scientific,
240 agar) plate containing 100 μg/mL ampicillin and 34 μg/mL chloramphenicol, then
Terrific broth (TB) medium (24 g/L yeast extract,
243 20 g/L tryptone, glycerol 4 mL/L, 100 mL/L phosphate buffer containing 0.17 M KH2PO4
244 and 0.72 M K2HPO4) was used to prepare a 1:100 dilution of the starter culture, and OD600
At OD600 = 1, protein induction was initiated by adding 1 mM
247 day, pellets were homogenized and lysed in glycerol lysis buffer (20 mM Tris-HCl pH
Lysis was performed on ice for 30 min, followed by
250 sonication (7 × 20 sec pulses with 20 sec breaks on ice) using a Bandelin sonoplus
Lysates were centrifuged at 4°C for 1 h
253 medium culture was lysed in 20 mL of supernatant (collected in 20 × 1 mL tubes). GST
255 agarose bead; Thermo Fisher Scientific, Waltham, MA, USA). For each 1 mL of
100 μL of GST magnetic beads
257 were washed twice with 500 μL of wash buffer (125 mM Tris-HCl pH 7.4, 150 mM NaCl,
The lysis supernatant was diluted 1:1 with
259 wash buffer, and incubated with the beads on an end-over-end rotator for 1 h at 25°C.
260 After incubation, the supernatant was removed, and the beads were washed twice with
Protein elution was then performed by incubating
263 pH 7.4, 250 mM NaCl, 0.3% Triton X-100) for 30 min at 25°C on an end-over-end rotator.
265 under the same conditions. Elution fractions were pooled and concentrated by
266 centrifugation (4°C, 25 min, 4500 rpm) using a 30 kDa cut-off concentrator (Merck
267 Millipore, #UFC803008, Darmstadt, Germany). Purified proteins were analyzed by
268 colloidal Coomassie stain, WB and MS.
270 Streptavidin pull-downs with GST-DCAF10 and biotinylated peptides
271 Streptavidin magnetic beads (DynabeadsTM MyOneTM Streptavidin T1; Thermo Fisher
272 Scientific, Waltham, MA, USA) were washed twice with 500 μL of wash buffer (125 mM
273 Tris-HCl pH 7.4, 150 mM NaCl, 0.1% Triton X-100). An excess of peptides was added
274 (to ensure full occupancy of the beads) and incubated for 30 min at RT. After peptide
275 binding, beads were again washed three times with 500 μL of wash buffer. The pull-down
276 was then performed in a 100 μL reaction volume with final concentrations of 0.5 µM
277 GST-DCAF10 and 5 µM peptide. GST-DCAF10 or GST alone (as a control) was added
278 to the peptide-streptavidin beads and incubated on a rotator for 1 h at RT. After incubation,
279 the beads were washed three times with 500 μL of wash buffer and resuspended in 4x
280 Laemmli buffer. 1/5 of the input (GST-DCAF10 and GST) and 9/10 of the sample were
281 loaded on a 10% SDS gel and blotted with anti-GST and anti-DCAF10 antibodies, while
282 1/10 was loaded on a 15% SDS gel and blotted with anti-streptavidin antibody to assess
283 equal peptide loading.
285 Streptavidin Sepharose High Performance, GE Healthcare, Chicago, IL, USA) were used.
286 After washing with a high salt wash buffer without detergents (125 mM Tris-HCl pH 7.4,
287 400 mM NaCl), an excess of peptides was added and incubated for 30 min at RT. For each
288 reaction, 10 µL of slurry beads were used. After peptide-binding, beads were again
289 washed once with a high salt wash buffer without detergents and twice with binding buffer
290 without detergents (125 mM Tris-HCl pH 7.4, 150 mM NaCl). The pull-downs were
291 performed in a 100 μL reaction volume in binding buffer without detergents with a final
292 concentration of 0.5 µM GST-DCAF10 and incubated rotating for 1 h at RT. After
293 incubation, the beads were washed five times with 500 μL of high salt wash buffer without […]

For “RBX1^mut: catalytically inactive variant complex (RBX1 C75A, H77A)”, the “In vitro ubiquitination (in words)” value (CUL4A-DDB1-DCAF10) was “failed to ubiquitinate any variant above background”.
“endogenous Lyn: endogenous Lyn kinase of DLD-1 cells” was tested, and the “Level decrease following NMT1/2 KD” value ([1]; DLD-1, 72 h NMT1/2 siRNA, 24 h doxycycline 100 ng/mL, average) was 31% and the “Level increase upon combined NMT1/2 and DCAF10 KD” value ([1]; DLD-1, 72 h siRNA) was 36.5%.
In the case of “GAVTDDEVIRKK [Ac-THOC7, Nt-peptide of THOC7, Nt-acetylated]”, the “DCAF10 binding (in words)” value (DCAF10) is reported as “did not bind DCAF10 significantly” and the “Binding to GST-DCAF10 (in words)” value (GST-DCAF10) is reported as “neither Nt-acetylated nor Nt-free THOC7 peptides or GST alone bound DCAF10”.
